Laboratory results as given in patent publication US5856529A, “Benzofuran and dihydrobenzofuran melatonergic agents” (Bristol-Myers Squibb Company, priority 1997, dated 1999).

Target: T1, ML1a human melatonin receptor (Homo sapiens, UniProt P48039)
T1 construct: expressed in transfected cells
Assay: Melatonergic Receptor Binding Activity (2-[125I]-iodomelatonin, membranes of NIH-3T3 cells expressing ML1a receptor)
Conditions: 37° C. for 1 hour, read-out: Melatonin Binding Affinity (IC50)
Method: Melatonergic Receptor Binding Activity
(a) TME=50 mM Tris buffer containing 12.5 mM MgCl2, and 2 mM EDTA, pH 7.4 at 37° C. with concentrated HCl.
(b) Wash buffer: 20 mM Tris base containing 2 mM MgCl2, pH 7.4 at room temperature.
(c) 10^-4 M melatonin (10^-5 M final concentration).
(d) 2-[^125 I]-iodomelatonin, […] final concentration
The melatonin ML1a receptor cDNA was subcloned into pcDNA3 and introduced into NIH-3T3 cells using Lipofectamine. Transformed NIH-3T3 cells resistant to geneticin (G-418) were isolated, and single colonies expressing high levels of 2[^125 I]-iodomelatonin binding were isolated. Cells are maintained in DMEM supplemented with 10% calf serum and G-418 (0.5 g/liter). Cells are grown to confluency in T-175 flasks, scraped using Hank's balanced salt solution, and frozen at -80° C. For preparing membrane homogenates, pellets are thawed on ice, and resuspended in TME buffer in the presence of 10 μg/ml aprotinin and leupeptin, and 100 μM phenylmethylsulfonylfluoride. The cells were then homogenized using a dounce homogenizer, and centrifuged. The resulting pellet was resuspended with dounce homogenizer in TME (supplemented with the above protease inhibitors) and frozen. On the day of assay, the small aliquot was thawed on ice and resuspended in ice cold TME (1:50-1:100 v/v) and held on ice until assayed.
3. Incubation: 37° C. for 1 hour. Reaction is terminated by filtration. Filters are washed 3 times.

T1 sequence (P48039 whole entry): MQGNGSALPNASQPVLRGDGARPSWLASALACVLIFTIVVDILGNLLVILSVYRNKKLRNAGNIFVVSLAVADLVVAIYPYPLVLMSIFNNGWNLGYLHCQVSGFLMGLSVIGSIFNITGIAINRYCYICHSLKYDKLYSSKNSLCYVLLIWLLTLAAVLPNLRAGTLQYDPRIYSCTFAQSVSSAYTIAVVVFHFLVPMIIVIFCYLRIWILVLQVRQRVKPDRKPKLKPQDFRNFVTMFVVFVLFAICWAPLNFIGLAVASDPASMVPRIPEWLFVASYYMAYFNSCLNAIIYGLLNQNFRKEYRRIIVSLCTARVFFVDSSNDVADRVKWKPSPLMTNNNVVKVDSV

| SMILES | IC50 [nM] |
| --- | --- |
| CCC(=O)NC[C@@H]1C[C@H]1c1cccc2c1CC(C)O2 (single isomer, unassigned; (+)) [Example 82, (+)-(trans)-N-[[2-(2-methyl-2,3-dihydrobenzofuran-4-yl)cycloprop-1-yl]methyl]propanamide] | < 10 |
| CCC(=O)NC[C@@H]1C[C@H]1c1cccc2c1CCCO2 (single isomer, unassigned) [Example 96, (+)-(trans)-N-[[2-(3,4-dihydro-2H-1-benzopyran-5-yl)cycloprop-1-yl]methyl]propanamide] | < 10 |
| CCCC(=O)NC[C@@H]1C[C@H]1c1cccc2c1CCO2 (relative stereo) [Example 30, (trans)-N-[[2-(2,3-dihydrobenzofuran-4-yl)cycloprop-1-yl]methyl] butanamide] | < 10 |
| CCC(=O)NCC1C(c2cccc3oc(C)cc23)C1(F)F (stereo not shown) [Example 95, N-[[2-(2-Methyl-4-benzofuranyl)-3,3-difluorocyclopropanyl]-methyl]propanamide] | 10 to 100 |
| CCCC(=O)NC[C@@H]1C[C@H]1c1cccc2oc(C)cc12 (relative stereo) [Example 76, (trans)-N-[[2-(2-methyl-benzofuran-4-yl)cycloprop-1-yl]methyl]-butanamide] | < 10 |
| CC(=O)NC[C@@H]1C[C@H]1c1cccc2c1OCO2 (relative stereo) [Example 3, (trans)-N-[[2-(1,3-benzodioxol-4-yl)cycloprop-1-yl]methyl]acetamide] | < 10 |
| CCC(=O)NC[C@@H]1C[C@H]1c1cccc2occc12 (relative stereo) [Example 23, (trans)-N-[[2-(benzofuran-4-yl)cycloprop-1-yl]methyl]propanamide] | < 10 |
| CCC(=O)NC[C@@H]1C[C@H]1c1cccc2c1CCO2 (relative stereo) [Example 29, (trans)-N-[[2-(2,3-dihydrobenzofuran-4-yl)cycloprop-1-yl]methyl] propanamide] | < 10 |
| CCC(=O)NC[C@@H]1C[C@H]1c1cccc2c1CC(C)O2 (single isomer, unassigned; (-)) [Example 88, (-)-(trans)-N-[[^2-(2-methyl-2,3-dihydrobenzofuran-4-yl)cycloprop-1-yl]methyl]propanamide] | < 10 |
| CC(C)C(=O)NC[C@@H]1C[C@H]1c1cccc2c1OCO2 (relative stereo) [Example 11, (trans)-N-[[2-(1,3-benzodioxol-4-yl)cycloprop-1-yl]methyl]-2-methylpropanamide] | 10 to 100 |

Next, values leading:

| IC50 [nM] | SMILES |
| --- | --- |
| < 10 | C=CC(=O)NC[C@@H]1C[C@H]1c1cccc2c1OCCO2 (single isomer, unassigned) [Example 52] |
| < 10 | CCC(=O)NC[C@@H]1C[C@H]1c1cccc2c1CCO2 (single isomer, unassigned) [Example 2, (-)-(trans)-N-[[2-(2,3-Dihydrobenzofuran-4-yl)cycloprop-1-yl]methyl]propanamide] |
| 10 to 100 | O=C(NC[C@@H]1C[C@H]1c1cccc2c1OCC2)C1CC1 (relative stereo) [Example 67] |
| 100 to 250 | CCC(=O)NC[C@@H]1C[C@H]1c1cccc2c1CCCCO2 (relative stereo) [Example 61] |
| < 10 | O=C(NC[C@@H]1C[C@H]1c1cccc2c1OCCO2)C(F)(F)F (single isomer, unassigned) [Example 54, (-)-(trans)-N-[[2-(2,3-dihydro-1,4-benzodioxin-5-yl)cycloprop-1-yl]methyl]trifluoroacetamide] |
| 10 to 100 | O=C(NC[C@@H]1C[C@H]1c1cccc2c1OCCO2)C1CC1 (relative stereo) [Example 18, (trans)-N-[[2-(2,3-dihydro-1,^4-benzodioxin-5-yl)cycloprop-1-yl]-methyl]cyclopropane carboxamide] |
| 10 to 100 | CCC(=O)NC[C@@H]1C[C@H]1c1cccc2c1CCCO2 (single isomer, unassigned) [Example 42, (-)-(trans)-N-[[2-(3,4-dihydro-2H-1-benzopyran-5-yl)cycloprop-1-yl]methyl]propanamide] |
| 10 to 100 | CC(=O)NC[C@@H]1C[C@H]1c1cccc2c1OCCCO2 (relative stereo) [Example 60] |
| 10 to 100 | O=C(NC[C@@H]1C[C@H]1c1cccc2ccoc12)C1CC1 (relative stereo) [Example 80, (trans)-N-[[2-(benzofuran-7-yl)cycloprop-1-yl]methyl]-cyclopropanecarboxamide] |
